Consider twelve compounds from patent publication US12545637B2, “Extrahepatic targeted cationic lipid compound with high efficiency and low toxicity and its composition” (BEIJING YOUCARE KECHUANG PHARMACEUTICAL TECHNOLOGY CO., LTD., priority 2023, dated 2026).

Each structure is given as a SMILES string.

The nature of data set [1]: Particle size and polydispersity index (PDI) of lipid nanoparticles by dynamic light scattering. It is filed as physicochemical. The note with it: for PDI: LNP formulation of the cationic lipid, 25° C.; for Particle size: LNP formulation of the cationic lipid/DSPC/cholesterol/DMG-PEG2000 49:10:39.5:1.5, 25° C. As to the method: The particle size and polydispersity index (PDI) were determined by dynamic light scattering using Malvern laser particle size analyzer.
10 μL of the liposome solution was weighed, diluted to 1 mL with RNase-free deionized water, and added to the sample pool. Each sample was measured in triplicate. The measurement conditions were: […] scattering angle, and 25° C.

Data set [2] in a line: Detection of encapsulation efficiency, drug loading concentration and total RNA concentration (RiboGreen). It is filed as physicochemical. Conditions: LNP formulation prepared from the cationic lipid. The text has this: Encapsulation efficiency is a key quality attribute of liposomes, which refers to the percentage of drug content encapsulated in the lipid bimolecular layer accounting for the total drug dose and can reflect the degree of drug encapsulation in liposomes. The Chinese Pharmacopoeia stipulates that the encapsulation efficiency should generally not be less than 80%.
The drug loading amount is the ratio of the amount of drug in the liposome to the total amount of drug and carrier in the liposome. The drug loading amount directly affects the clinical application dose of the drug. […] The drug loading concentration is proportional to the drug loading amount, and the relative proportion of the drug loading concentrations can represent the relative proportion of the drug loading amounts. The relative ratio of the total RNA concentrations may represent the relative ratio of the amounts of mRNA carried by the LNP formulations.
1×TE buffer, 0.1% Triton X-100 buffer, RiboGreen reagent (1: 200) and mRNA standard stock solution were prepared.
An appropriate amount of the sample was added to an appropriate amount of 1×TE buffer, and the mixture was diluted to obtain a solution containing approximately […] sample per 1 mL. Then the sample was added to a 96-well plate, and 50 μL of the diluted test sample or the mRNA standard stock solution was added to each well, then 1×TE buffer and 0.1% Triton X-100 buffer were added. The sample was incubated at 37° C. for 10 minutes, and 100 μL RiboGreen reagent (1:200) was added to each well of the test sample in the 96-well plate. The sample was centrifugated, and the data were read using a microplate reader, and processed.

The subject of data set [3] is 293T cells. Put plainly: Fluorescent detection of Fluc-mRNA (cell transfection efficiency of LNP formulations). Format: cell-based. Conditions: for Relative light unit (RLU): LNP with 0.3 μg Fluc-mRNA, 96-well plate, 24 hours. As to the method: (§1) Seeding plate: The cells in the culture dish were digested and counted. Cells were spread in a 96-well plate at 10,000 cells per well and in a 12-well plate at 150,000 cells per well. Cells were cultured overnight until the cells adhered to the wall.
The corresponding reagents were added according to the instructions of the Gaussia Luciferase Assay Kit, and the fluorescence expression intensity of each well was detected by an IVIS fluorescence detection system.

Data set [4] has as its system 293T cells. The data set is described as follows: Cell survival rate assay (CCK-8). It is filed as cell-based. The note with it: LNP with 1.5 μg Fluc-mRNA, 24 hours, CCK-8. As to the method:
Cell recovery and passage: 293T cells were recovered, cultured in a culture dish, and passaged to the required number of cells.
as §1
An LNP formulation containing 1.5 μg of Fluc-mRNA (prepared according to example 4, the carrier components of the LNP formulation were cationic lipid, neutral lipid, structured lipid and polymer-conjugated lipid at a molar ratio of 49:10:39.5:1.5, wherein the cationic lipid was listed in Table 1) and the formulation of Lipofectamine 3000 were added to the cell culture medium of a 96-well plate, and further cultivated for 24 hours. 10 μL of CCK-8 solution was then added to each well, and the culture plate was incubated in an incubator for 1 hour. The absorbance at 450 nm was measured by a microplate reader.

Consider `CCCCCC(CC)OC(=O)CCCCCCCCN(CCO)CCN(CCO)CCCCCCCCC(=O)OC(CC)CCCCC` (stereo not drawn) [YK-404, di(octan-3-yl) 9, 9′-(ethane-1,2-diyl-bis((2-hydroxyethyl)azanediyl))dinonanoate], for which, in data set [1], the PDI was determined as 4.2% and the Particle size was found to be 142 nm. Also, in data set [2], the Drug loading concentration came to 28.45 µg/mL, the Encapsulation efficiency is listed as 75.3% and the “Total RNA concentration” value turned out to be 33.41 µg/mL. In addition, in data set [3], the “Relative light unit (RLU)” value came out at 7543 RLU. The compound also displayed a Cell survival rate in data set [4] of 42.12%.
In the case of `CCCCCCCCCCOC(=O)CCCN(CCO)CCN(CCO)CCCCCC(=O)OC(CCCCCCCC)CCCCCCCC` [YK-405, Heptadecan-9-yl 6-((2-hydroxyethyl)(2-((2-hydroxyethyl)(4-(decyloxy)-4-oxobutyl)amino)ethyl)amino)hexanoate], in data set [1], the PDI came out at 4.3% and the Particle size amounted to 141 nm. For the same compound, in data set [2], the Drug loading concentration stood at 33.42 µg/mL, the Encapsulation efficiency came out at 83.2% and the “Total RNA concentration” value stood at 40.19 µg/mL. In data set [3], the “Relative light unit (RLU)” value came out at 3197780 RLU. Also, the Cell survival rate in data set [4] was 41.86%.
Turning to `CCCCCCCCCCCOC(=O)CCCN(CCO)CCN(CCO)CCCCCCOC(=O)CC(CCCCCC)CCCCCC` [YK-406, 6-((2-hydroxyethyl) (2-((2-hydroxyethyl)(4-(undecyloxy)-4-oxobutyl)amino)ethyl)amino)hexyl 3-hexylnonanoate], in data set [1], the PDI is on record as 15.8% and the Particle size amounted to 154 nm. For the same compound, in data set [2], the Drug loading concentration was 30.19 µg/mL, the Encapsulation efficiency is recorded as 87.8% and the “Total RNA concentration” value was found to be 34.41 µg/mL. In addition, in data set [3], the “Relative light unit (RLU)” value came out at 78251 RLU. This compound also returned a Cell survival rate in data set [4] of 24.96%.
In data set [1], `CCCCCCCCCCOC(=O)CCCN(CCO)CCN(CCO)CCCC(=O)OC(CCCCCCCC)CCCCCCCC` [YK-408, heptadecan-9-yl 4-((2-hydroxyethyl)(2-((2-hydroxyethyl)(4-(decyloxy)-4-oxobutyl)amino)ethyl)amino)butyrate] registered a PDI of 16.2% and a Particle size of 136 nm. In addition, in data set [2], the Drug loading concentration was 45.42 µg/mL, the Encapsulation efficiency was found to be 86.6% and the “Total RNA concentration” value was found to be 52.46 µg/mL. Further, in data set [3], the “Relative light unit (RLU)” value is given as 1474136 RLU. Further, in data set [4], the Cell survival rate is listed as 42.31%.
In data set [1], `CCCCCCCCCCCOC(=O)CCCN(CCO)CCN(CCO)CCCCCC(=O)OCC(CCCCCCCC)CCCCCCCC` [YK-409, 2-octyldecyl 6-((2-hydroxyethyl)(2-((2-hydroxyethyl)(4-(undecyloxy)-4-oxobutyl)amino)ethyl)amino) hexanoate] showed a PDI of 13.7% and a Particle size of 155 nm. For the same compound, in data set [2], the Drug loading concentration amounted to 34.14 µg/mL, the Encapsulation efficiency is 86.9% and the “Total RNA concentration” value came out at 39.27 µg/mL. Besides, the “Relative light unit (RLU)” value in data set [3] is 669807 RLU. Moreover, the Cell survival rate in data set [4] came to 46.11%.
In data set [1], `CCCCCCCCCCOC(=O)CCCCCN(CCO)CCN(CCO)CCCCCC(=O)OCC(CCCCCCCC)CCCCCCCC` [YK-410, 2-octyldecyl 6-((2-hydroxyethyl)(2-((2-hydroxyethyl)(6-(decyloxy)-6-oxohexyl)amino)ethyl)amino)hexanoate] came in with a PDI of 15.5% and a Particle size of 163 nm. In data set [2], the Drug loading concentration stood at 29.48 µg/mL, the Encapsulation efficiency was 88.2% and the “Total RNA concentration” value worked out at 33.42 µg/mL. In data set [3], the “Relative light unit (RLU)” value was 407868 RLU. The same compound showed a Cell survival rate in data set [4] of 44.92%.
As to `CCCCCCCCC(CCCCCCCC)C(=O)OCCCCCCN(CCO)CCCN(CCO)CCCCCCOC(=O)C(CCCCCCCC)CCCCCCCC` [YK-412, (propane-1,3-diyl-bis((2-hydroxyethyl)azanediyl))-bis(hexane-6,1-diyl)bis(2-octyldecanoate)], the “Relative light unit (RLU)” value in data set [3] is recorded as 3371352 RLU. In addition, the Cell survival rate in data set [4] was found to be 54.14%.
In data set [1], `CCCCCCCCCCCOC(=O)CCCN(CCO)CCCN(CCO)CCCCCC(=O)OC(CCCCCCCC)CCCCCCCC` [YK-413, heptadecan-9-yl 6-((2-hydroxyethyl)(3-((2-hydroxyethyl)(4-oxo-4-(undecyloxy)butyl)amino)propyl)amino)hexanoate] gave a PDI of 16.1% and a Particle size of 160 nm. Besides, in data set [2], the Drug loading concentration is 23.63 µg/mL, the Encapsulation efficiency worked out at 83.3% and the “Total RNA concentration” value came to 28.36 µg/mL. Moreover, the “Relative light unit (RLU)” value in data set [3] came to 1377048 RLU. This compound registered a Cell survival rate in data set [4] of 47.20%.
On to `CCCCCCCCCCOC(=O)CCCN(CCO)CCCN(CCO)CCCC(=O)OC(CCCCCCCC)CCCCCCCC` [YK-414, decyl 4-(3-((4-(heptadecan-9-yloxy)-4-oxobutyl)(2-hydroxyethyl)amino)propyl)(2-hydroxyethyl)aminobutyrate], for which the “Relative light unit (RLU)” value in data set [3] came to 444089 RLU. Besides, the Cell survival rate in data set [4] is given as 28.75%.
In data set [1], `CCCCCCCCCCOC(=O)CCCCCN(CCO)CCCN(CCO)CCCCCC(=O)OCC(CCCCCCCC)CCCCCCCC` [YK-416, decyl 6-((2-hydroxyethyl)(3-((2-hydroxyethyl)(6-((2-octyldecyl)oxy)-6-oxohexyl)amino)propyl)amino)hexanoate] gave a PDI of 19.7% and a Particle size of 190 nm. In data set [2], the Drug loading concentration was 25.16 µg/mL, the Encapsulation efficiency came to 79.6% and the “Total RNA concentration” value came to 31.62 µg/mL. In data set [3], the “Relative light unit (RLU)” value was 3975264 RLU. Moreover, the “cell transfection efficiency, times that of YK-417” value in data set [3] (ratio vs YK-417) turned out to be 34. The compound further had a Cell survival rate in data set [4] of 40.97%.
Regarding `CCCCCCCCC(CCCCCCCC)OC(=O)CCCCCN(CCO)CCCCN(CCO)CCCCCC(=O)OC(CCCCCCCC)CCCCCCCC` [YK-420, di(heptadecan-9-yl) 6,6′-(butane-1,4-diylbis((2-hydroxyethyl)azanediyl))dihexanoate], in data set [1], the PDI is given as 14.2% and the Particle size turned out to be 169 nm. Further, in data set [2], the Drug loading concentration is 35.87 µg/mL, the Encapsulation efficiency was 94.9% and the “Total RNA concentration” value was determined as 37.81 µg/mL. Besides, the “Relative light unit (RLU)” value in data set [3] is listed as 4019330 RLU. In data set [4], this compound registered a Cell survival rate of 35.59%.
With `CCCCCCCCCCOC(=O)CCCN(CCO)CCCCN(CCO)CCCCCC(=O)OC(CCCCCCCC)CCCCCCCC` [YK-421, heptadecan-9-yl 6-((4-((4-(decyloxy)-4-oxobutyl)(2-hydroxyethyl)amino)butyl)(2-hydroxyethyl)amino)hexanoate], in data set [1], the PDI worked out at 17.4% and the Particle size turned out to be 148 nm. In data set [2], the Drug loading concentration came to 33.93 µg/mL, the Encapsulation efficiency came to 83.1% and the “Total RNA concentration” value is 40.83 µg/mL. In data set [3], the “Relative light unit (RLU)” value was 466616 RLU. The compound also yielded a Cell survival rate in data set [4] of 35.71%.
